Assay [1] has as its system whole bone marrow cells (BMC). The assay can be described thus: Fibroblastic colony forming unit (CFU-f) cultures of whole bone marrow cells. It is filed as cell-based, rat. The following applies: for colony numbers: CFU-f colonies. The protocol: Whole bone marrow cells (BMC's) were obtained from the tibias and femurs of 125 g male Wistar rats. The bones were removed under aseptic conditions and all soft adherent tissue removed. An end of each bone was removed, a hole made in the opposing end with an 18 gauge syringe needle, and the cells isolated centrifugally [Dobson K. R., et al., Calcif tissue Int., 65:411-413 (1999)]. The cells were dispersed in 10 ml DMEM (containing 12% FCS, 1×10^−8 M dexamethasone and […] ascorbic acid) by repeated pipetting, and a single-cell suspension achieved by forcefully expelling the cells through a 20 gauge syringe needle. The cells were then used in the protocols described below. To analyse the numbers of fibroblastic-colony forming units (CFU-f) in either whole BMC or high density non-adherent stromal precursor (NASP) cell cultures, 10^6 nucleated BMC, or the non-adherent cells from the high density NASP cellcultures, were plated out on 55 cm^2 petri dishes in DMEM containing; 12% FCS, 1×10^−8 M dexamethasone and 50 μg/ml ascorbic acid. In the case of the CFU-f analysis of whole BMC, the test agents were added once at the beginning of the culture period. In the case of NASP cell cultures, the test agents were added at the beginning of the NASP cell cultures themselves and the CFU-f assay only used to assess the number of CFU-f generated during the NASP cell culture. The medium was changed after 5 days and, thereafter, twice weekly. The cultures were maintained for 18 days, after which the cells were washed with PBS and fixed, by the addition of cold ethanol. After fixation, the cultures were stained for alkaline phosphatase (APase) positive, calcium positive, collagen positive and total colonies as described by Scutt & Bertram (J. Bone and Mineral Res. 10:474-489, 1995). The cultures were then photographed using a digital camera and the APase positive, calcium positive, collagen positive and total colonies quantitated using Bioimage “Intelligent Quantifier” image analysis software [Dobson K., et al., A cost effective method for the automatic quantitative analysis of fibroblastic-colony forming units with osteoblastic potential. Calcif. Tissue Int. 65:166-172 (1999)].

Another assay concerns bone forming cells. The assay is described as follows: Bone anabolic activity from CFU-f and NASP cell assays combined with neonatal rat calvarial organ cultures. The format is cell-based. The following applies: for bone anabolic activity: useful activity taken as equivalent to that of PGE2. The text has this:
The main reason for the lack of understanding of the cellular basis for the actions of bone anabolic drugs is that there exists, at present, no single in vitro assay which responds to these drugs in an appropriate manner. However, we have now developed a number of assays which, when used in combination with neonatal rat calvarial organ cultures, are able to predict bone anabolic agents.
In the accompanying Figures, which are purely illustrative and not limiting on the present invention, the effect of certain compounds is shown on alkaline phosphatase activity, calcium uptake and collagen synthesis, respectively, with the final bar showing the cumulative and determinative effect of the compound on bone anabolism:
As noted above, there is no single assay that can reliably report on bone anabolic activity. Individual assays can identify certain putative bone anabolic agents but as there are many bone anabolic agents which act by a number of mechanisms, many remain unidentified. By using the CFU-f and the NASP cell assays in combination with neonatal rat calvarial organ cultures, bone anabolic agents can be reliably identified as the false negatives are reduced to a minimum.

Assay [2] has as its system non-adherent stromal precursor (NASP) cells. The assay is described as follows: High-density non-adherent stromal precursor (NASP) cell cultures. The format is cell-based, rat. The settings on record: 4 day NASP culture then CFU-f readout; FIG. 1. The protocol: Whole bone marrow cells (BMC's) were obtained from the tibias and femurs of 125 g male Wistar rats. The bones were removed under aseptic conditions and all soft adherent tissue removed. An end of each bone was removed, a hole made in the opposing end with an 18 gauge syringe needle, and the cells isolated centrifugally [Dobson K. R., et al., Calcif tissue Int., 65:411-413 (1999)]. The cells were dispersed in 10 ml DMEM (containing 12% FCS, 1×10^−8 M dexamethasone and […] ascorbic acid) by repeated pipetting, and a single-cell suspension achieved by forcefully expelling the cells through a 20 gauge syringe needle. The cells were then used in the protocols described below. […]
After fixation, the cultures were stained for alkaline phosphatase (APase) positive, calcium positive, collagen positive and total colonies as described by Scutt & Bertram (J. Bone and Mineral Res. 10:474-489, 1995). The cultures were then photographed using a digital camera and the APase positive, calcium positive, collagen positive and total colonies quantitated using Bioimage “Intelligent Quantifier” image analysis software [Dobson K., et al., A cost effective method for the automatic quantitative analysis of fibroblastic-colony forming units with osteoblastic potential. […]

The next assay has as its system neonatal rat calvariae. The assay can be described thus: Collagen synthesis in organ culture of neonatal rat calvariae. It is filed as cell-based. The settings on record: [3H]proline incorporation into collagenase-digestible protein; FIG. 1. The protocol: One day old rat pups were killed and the calvariae (skull cases) dissected out. The calvariae were then cut along the sagittal suture to give two hemicalvariae per foetus. Each bone was cultured in 2 ml DMEM containing 1 mg/ml BSA, 50 μg/ml ascorbic acid, 60 μg/ml penicillin, and 50 μg/ml streptomycin and 1×10^−8M dexamethasone in 35 mm tissue culture wells. After 24 h, the medium was replaced with fresh medium, any test agent added, and the tissue cultured for a further 48 h.
In this assay, each bone was pulsed with 10 μCi of [^3H]proline for 24 h at the end of the culture period. The bones were washed successively in trichloroacetic acid (TCA), acetone, and ether, and then dried. The incorporation of [^3H]proline into collagenase-digestible protein (CDP) was determined using purified bacterial collagenase by the method of Peterkofsky B. and Diegelmann R. (Biochemistry, 6: 988-994, 1971) and expressed as dpm.

“Also recorded” adds a separate entry of the source.

In the case of `CC#CCC(C)[C@H](O)/C=C/[C@@H]1[C@H]2C/C(=C/CCCC(=O)O)C[C@H]2C[C@H]1O` (some centres unmarked) [iloprost], the colony numbers entry in assay [1] is “stimulation comparable with that of PGA1”.
For the molecule `CCCCC[C@H](O)/C=C/[C@H]1C=CC(=O)[C@@H]1C/C=C\CCCC(=O)O` [PGA2], the bone anabolic activity result with bone forming cells is reported as “useful activity”.
Still for that read-out and setting: the entry for `CCCCC/C=C\C/C=C\CCCCCCCC(=O)O` [Linoleic acid, linoleic acid] is “showed bone anabolic activity”.
For the molecule `CCCCC[C@H](O)/C=C/[C@H]1C=CC(=O)[C@@H]1CCCCCCC(=O)O` [PGA1], in assay [1], the colony numbers result is given as “significant dose dependent increase”. In assay [1] (whole BMC, 18 day culture, FIG. 1), the “response in CFU-f assay” value is given as “positive response”. In addition, the “response in NASP cell assay” value in assay [2] is listed as “positive response”. In addition, in the assay on neonatal rat calvariae, the “response in calvarial collagen synthesis assay” value was “positive response”. In the assay on bone forming cells (magnitude relative to PGE2), the “bone anabolic activity compared with PGE2” value is on record as “comparable with that produced by PGE2; also recorded: at least as good as that of PGE2”.
As for `CCCCCCCC/C=C\CCCCCCCC(=O)O` [oleic acid], the bone anabolic activity entry in the assay on bone forming cells is “useful activity”.
For `CCCCCCCCCCCCCCCC(=O)OC` [Methyl palmitate, methyl palmitate], the colony numbers result in assay [1] was “produced stimulation”.
As for `c1cc2c(cc1[C@H]1OC[C@H]3[C@@H]1CO[C@@H]3c1ccc3c(c1)OCO3)OCO2` [sesamin], the bone anabolic activity result in the assay with bone forming cells was “useful activity”.
